Assay results published in patent US5756683A, “Immunological detection method” (Novartis Finance Corporation, priority 1991, dated 1998).

Biological target: MAb 4197-70-12
Experiment: two-step competitive ELISA; inhibition of MAb binding to carrier-bound antigen (cross-reactivity)
Parameters: species or system mouse (Balb/c)
Details: for I50 (inhibitor concentration that reduces the ELISA signal by 50% in comparison with the control): competitive ELISA; for cross-reactivity: (antigen conc. for 50% inhibition/concentration of the antigen analog for 50% inhibition) × 100: relative to compound of formula (II) = 100
Experimental: [antigen concentration for 50% inhibition (I50)/concentration of the
antigen analogs for 50% inhibition (I50)]×100.
The I50 value can be determined, for example, by means of a competitive ELISA assay (see Example 8).
The detection of a compound of formula (II) can be effected by means of a two-step competitive ELISA test.
BSA-conjugated hapten, prepared in accordance with Example 1.2.1, in a 50 mM sodium carbonate buffer (pH 9.6) (200 ng of BSA-conjugated hapten/100 μl of 50 mM sodium carbonate buffer) is first of all adsorbed on microtitre plates (for example Dynatech, type M 129A) and incubated overnight at a temperature of 4° C.
The plates are then washed five times with PBS buffer enriched with 0.1% (v/v) polysorbate 20 (Tween 20) (PBS Tween).
The remaining free binding sites of the solid carrier material are then blocked by the addition of PBS-BSA in the form of a 1% (w/v) solution. After incubation for two hours at 22° C. the plates are washed again with PBS Tween (0.1%).
50 μl of the supernatant of the previously cloned hybridoma cells (in a dilution of from 1:1000 to 1:2000) or 50 μl of the previously purified monoclonal antibodies (40-120 ng/ml) are incubated a) with 950 μl of a standard solution containing an increasing amount of antigen [compound of formula (II)] or of antigen analog, b) with antigen-containing water samples or c) with antigen-containing soil extracts. [All dilutions are carried out in PBS Tween (0.1%)].
After an incubation period of 1 hour at room temperature (22° C.), 200 μl of the antigen/antibody mixture are added to each well in the microtitre plate and the whole batch is incubated for a further one hour. The wells are then washed five times with PBS Tween (0.1%) and charged with 100 μl/well of goat anti-mouse IgG antibody that is conjugated to alkaline phosphatase (dilution 1:1500), and incubated for a period of 1.5 hours.
After washing again, 150 μl/well of the substrate p-nitrophenyl phosphate dissolved in 1 mg/ml of diethanolamine buffer (1 mM, pH 9.8, enriched with 0.5 mM MgCl2 ×6H2 O) are added to the wells.
The intensity of the colour reaction that has occurred is determined at a wavelength of 405 nm. […] All the samples are determined in triplicate.
In order to determine the amount of antigen [[…]] present in a sample, first of all a calibration curve is produced, B/Bo×100 being plotted against the concentration of inhibitor. (Bo represents the absorption capacity measured without the addition of an antigen inhibitor to the antibody, and B is the absorption capacity when antigen inhibitors at various concentrations are added). The I50 value indicates the concentration of the antigen at which the binding of antibody to the solid phase is inhibited by 50%. The I50 value is determined using an ENZFITTER (Leatherbarrow, Elsevier-Biosoft) curve-calculation program based on a four-parameter logistical curve (Raab GM, 1983) and specially adapted to the prevailing conditions. The quantitative determination of antigen in soil or water samples within the context of ELISA is also carried out using the ENZFITTER program, the adaptation of the curve being based on standards that run on any microtitre plate.
^a) Inhibitor concentration that reduces the ELISA signal by 50% in
comparison with the control.
^b) (antigen conc. for 50% inhibition/concentration of the antigen
analog for 50% inhibition) × 100.

COC(=O)c1ccccc1S(=O)(=O)NC(=O)Nc1nc(OC(F)F)cc(OC(F)F)n1 [D]
I50 (inhibitor concentration that reduces the ELISA signal by 50% in comparison with the control): > 1000 ng/mL
cross-reactivity: (antigen conc. for 50% inhibition/concentration of the antigen analog for 50% inhibition) × 100: < 0.1%

COc1nc(C)nc(NC(=O)NS(=O)(=O)c2ccccc2OCCCl)n1 [B]
cross-reactivity in words: no cross-reactivity
I50 (inhibitor concentration that reduces the ELISA signal by 50% in comparison with the control): > 1000 ng/mL
cross-reactivity: (antigen conc. for 50% inhibition/concentration of the antigen analog for 50% inhibition) × 100: < 0.1%

COc1nc(C)nc(NC(=O)NS(=O)(=O)c2ccc(O)cc2OCCCl)n1 [A]
I50 (inhibitor concentration that reduces the ELISA signal by 50% in comparison with the control): > 1000 ng/mL
cross-reactivity: (antigen conc. for 50% inhibition/concentration of the antigen analog for 50% inhibition) × 100: < 0.1%

COc1nc(C)nc(NC(=O)NS(=O)(=O)c2ccccc2CCC(F)(F)F)n1 [Compound of formula (II), N-[2-(3,3,3-trifluoropropyl)-phenylsulfonyl]-N'-(4-methoxy-6-methyl-1,3,5-triazin-2-yl)urea]
I50 (inhibitor concentration that reduces the ELISA signal by 50% in comparison with the control): 0.8 ng/mL
cross-reactivity: (antigen conc. for 50% inhibition/concentration of the antigen analog for 50% inhibition) × 100: 100%
